Laboratory results: patent US9650365B2 (UNIVERSITY OF CONNECTICUT, priority 2014, dated 2017)
Where “and” joins values, the source holds several entries; their conditions need not be identical. Equal values may be shown once. Read-outs that look alike come from different tables or passages of the source.

Tests used:
[1] = tested on: Hh signaling (Gli1 mRNA) in MERP MB cells; assay: Down-regulation of Gli1 mRNA in MERP MB cells; format: cell-based, mice; conditions: Mus musculus; 48 hr incubation
Experimental: (§1) General Information. Protocols for general cell culture, qPCR and Hh inhibition in C3H10T1/2 and ASZ cells are as previously described.^28 Protocols for the initiation and growth of Math1-Cre-ER; Ptc^fl/fl medulloblastoma tumors, isolation and in vitro culture of MERP MB cells, as wells as the anti-proliferation and qPCR studies performed in these cells were as previously described.^a Sonic Hedgehog (C25II) recombinant mouse protein was purchased from Life Technologies. aData was analyzed using GraphPad Prism 5 and reported values represent mean±SEM for at least two separate experiments performed in triplicate.

[2] = tested on: Gli1 in DAOYs (cultured MB); assay: Down-regulation of Gli1 in DAOY cells; format: cell-based; conditions: Homo sapiens
From the text: (§2) Additional analogues have been synthesized and characterized in the assays described above.

Gli1 in M2s = assay: Down-regulation of Gli1 in M2s; format: cell-based
From the text: as §2

Ptch1 in C3Hs = assay: Down-regulation of Ptch1 in C3H10T1/2 cells; format: cell-based, mouse
From the text: For this assay, the wild-type and D477G Smo constructs will be transiently transfected into C3H10T1/2 cells and inhibition of pathway signaling assessed as previously described.

[3] = tested on: hedgehog (Hh) signaling pathway; conditions: background; cited from earlier work
[4] = tested on: Hh signaling (Gli1 mRNA) in ASZ cells; assay: Down-regulation of endogenous Gli1 mRNA in ASZ cells; format: cell-based, murine; conditions: Mus musculus
Summary of the method: (§3)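 Hh pathway activated in C3H10T1/2 cells with exogenous agonist (recombinant Hh ligand or small molecule) alongside inhibitor; Gli1 mRNA measured by qPCR. Concentration-dependent Gli1 reduction also assessed in murine BCC ASZ cells; values mean±SEM, ≥2 experiments in triplicate.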

tube formation in HUVECs = assay: HUVEC tube formation on Matrigel; format: cell-based, human
From the text: In vivo angiogenesis is dependent on endothelial cell proliferation; therefore, the inhibition of HUVEC proliferation is commonly utilized as an early stage in vitro model of anti-angiogenic activity. […] Under normal conditions, HUVECs plated and grown on Matrigel migrate towards each other, align, and form tubes that resemble in vivo capillary beds. This assay is generally considered a more robust model of angiogenesis as it requires several aspects of proper vessel formation, including adhesion, migration, and tube formation.
Tube Formation Assay. Matrigel (BD Biosciences) is diluted with DMEM to 3 mg/ml and used to coat the wells of a 24-well tissue culture dish. Plates are incubated at room temperature for 30 min until the matrigel solidifies. HUVECs are suspended in M199 media with 1% FBS and penicillin/streptomycin and 40,000 cells are added to each well. Plates are incubated at 37° C. for 1 h to allow HUVECs to attach to the matrigel. […] Phase contrast images of each well (3/well) are taken on an inverted microscope and quantified using Image J software (NIH).
Tube Formation Assay. Matrigel (BD Biosciences) was diluted 1:1 with DMEM (matrigel protein concentration no less than 3 mg/ml) and used to coat the wells of a 24-well tissue culture dish (280 uL per well). Plates were incubated at 37° C. for no more than 1 h until the matrigel solidified. HUVECs were suspended in M199 media with 1% FBS and penicillin/streptomycin and 50,000 cells were added to each well. Plates were incubated at 37° C. for 20-30 min to allow HUVECs to attach to the matrigel. Cells were treated with control (DMSO), known angiogenic inhibitor suramin (10 uM), or varying doses (10, 1, 0.1 μM) of drug and incubated for 16 h. Phase contrast images were taken from multiple locations in each well (8/well) on an inverted microscope and tube formation parameters quantified using Image J software (NIH).

Hh-dependent MB = conditions: oral administration; cited from earlier work
[5] = tested on: MERP MB cells (Math1-Cre-ER; Ptc fl/fl medulloblastoma); assay: Anti-proliferation in primary MERP MB cells; format: cell-based, mice; conditions: Mus musculus, 48 h, read-out: GI50 (μM) MERP MB, 48 hr incubation
Experimental: as §1
In this well-studied model system for evaluating small molecule inhibition of Hh signaling, addition of an exogenous Hh agonist (recombinant Hh ligand or small molecule) results in a characteristic increase in Gli1 mRNA expression. Concomitant incubation with a pathway inhibitor reduces Gli1 expression. […] In addition, several compounds were evaluated for their anti-proliferative effects in primary Hh-dependent medulloblastoma cells isolated from conditional patched knockout (Math1-Cre-ER; Ptc^fl/fl, MERP) mice. […] Finally, each of these analogues was evaluated for its ability to inhibit proliferation in human umbilical vein […] cells (HUVECs). In vivo angiogenesis is dependent on endothelial cell proliferation; therefore, the inhibition of HUVEC proliferation is commonly utilized as an early stage in vitro model of anti-angiogenic activity.

[6] = tested on: Hh signaling (Gli1 mRNA) in C3H10T1/2 cells; assay: Down-regulation of endogenous Gli1 mRNA in Hh-dependent C3H10T1/2 cells; format: cell-based, mouse; conditions: Mus musculus
Summary of the method: as §3

[7] = C3H 10T1/2, read-out: Hh inhibition

With CCC(C)n1ncn(-c2ccc(N3CCN(c4ccc(OCC5COC(Cn6cncn6)(c6ccc(Cl)cc6Cl)O5)cc4)CC3)cc2)c1=O (stereo not drawn) [ITZ, itraconazole, reference compound] the IC50 [1] was 0.39 ± 0.06 µM, the IC50 [2] was 0.6 ± 0.08 µM and the IC50 (Gli1 in M2s) was 0.3 µM and 0.52 µM. For the same compound, the IC50 (Ptch1 in C3Hs) was 0.33 µM, the IC50 (Ptch1 in C3Hs; Mus musculus, C3H 10T1/2) was 0.2 µM and the IC50 [3] was 690 nM. It also gave an IC50 ([4]; 48 h, read-out: IC50 (μM) ASZ, 48 hr incubation) of 0.14 ± 0.02 µM, an IC50 ([4]; read-out: Hh pathway inhibition ASZ, down-regulation of endogenous Gli1 mRNA) of 0.14 ± 0.02 µM and an IC50 ([4]; read-out: IC50 (μM) Gli1-ASZs) of 0.14 ± 0.02 µM. The “inhibition of tube formation” value (tube formation in HUVECs; 1 μM, 16 h) was “significant inhibition”, the “inhibition of tube formation (overall tube length and total tube junctions)” value (tube formation in HUVECs; 10 μM, 16 h) was “comparable to that of the positive control suramin” and the “inhibition of tube formation” value (tube formation in HUVECs; 0.1 and 1 μM, 24 hour) was “significantly inhibited tube formation”. For the same compound, the survival (Hh-dependent MB) was “increased survival”, the GI50 [5] was 0.44 ± 0.08 µM and the IC50 ([6]; C3H 10T1/2, 24 h, read-out: IC50 (μM) C3H10T1/2, 24 hr incubation) was 0.074 µM. It also gave an inhibition at 1 µM ([6]; C3H 10T1/2, read-out: % Hh inhibition) of 96%, an inhibition at 0.5 µM [6, 7] of roughly 70% and an inhibition at 1 µM [6, 7] of roughly 98%. For the same compound, the IC50 ([6]; C3H 10T1/2, read-out: Hh pathway inhibition C3H10T1/2, down-regulation of endogenous Gli1 mRNA) was 0.074 ± 0.02 µM, the IC50 ([6]; C3H 10T1/2, read-out: IC50 (μM) Gli1-C3Hs) was 0.07 ± 0.02 µM and the IC50 ([6]; C3H 10T1/2, read-out: IC50 down-regulation of Gli1, C3H10T1/2 cells) was 0.074 µM.
